{"source": "paper PMC5218480", "about": "(PLoS ONE, 2017)", "test_system": "MV-4-11 cells", "assay": "Gene expression microarray analysis (Affymetrix PrimeView) and GSEA", "assay_type": "cell-based, human", "set-up": "RFU PODN (11730768_x_at) / Fold change /veh PODN (11730768_x_at) / RFU LINC00158 (11744669_a_at) / Fold change /veh LINC00158 (11744669_a_at) / RFU DUSP10 (11751237_a_at) / Fold change /veh DUSP10 (11751237_a_at) / RFU ID3 (11757404_x_at) / Fold change /veh ID3 (11757404_x_at) / RFU PLEKHG5 (11737974_s_at) / Fold change /veh PLEKHG5 (11737974_s_at) / RFU LRRC4B (11730491_at) / Fold change /veh LRRC4B (11730491_at) / RFU GIMAP4 (11747438_a_at) / Fold change /veh GIMAP4 (11747438_a_at) / RFU KRT8 (11758183_x_at) / Fold change /veh KRT8 (11758183_x_at) / RFU CNN1 (11734310_a_at) / Fold change /veh CNN1 (11734310_a_at) / RFU VPS37D (11726825_at) / Fold change /veh VPS37D (11726825_at) / RFU C10orf10 (11716522_x_at) / Fold change /veh C10orf10 (11716522_x_at) / RFU KIR2DL2 /// KIR2DL4 /// KIR2DL5A /// KIR2DL5B /// KIR2DS1 /// KIR2DS2 /// KIR2DS3 /// KIR2DS4 /// KIR3DL3 /// KIR3DL3 /// KIR3DS1 (11738374_at) / Fold change /veh KIR2DL2 /// KIR2DL4 /// KIR2DL5A /// KIR2DL5B /// KIR2DS1 /// KIR2DS2 /// KIR2DS3 /// KIR2DS4 /// KIR3DL3 /// KIR3DL3 /// KIR3DS1 (11738374_at) / RFU C1QL1 (11718748_at) / Fold change /veh C1QL1 (11718748_at) / RFU TMPRSS4 (11747572_a_at) / Fold change /veh TMPRSS4 (11747572_a_at) / RFU HAMP (11756126_x_at) / Fold change /veh HAMP (11756126_x_at) / RFU RNFT2 (11725882_a_at) / Fold change /veh RNFT2 (11725882_a_at) / RFU NR4A2 (11747474_a_at) / Fold change /veh NR4A2 (11747474_a_at) / RFU ABCC12 (11746883_a_at) / Fold change /veh ABCC12 (11746883_a_at) / RFU TMEM136 (11760407_x_at) / Fold change /veh TMEM136 (11760407_x_at) / RFU CLDN22 /// WWC2 (11732394_at) / Fold change /veh CLDN22 /// WWC2 (11732394_at) / RFU HLA-DPB1 (11760878_x_at) / Fold change /veh HLA-DPB1 (11760878_x_at) / RFU SPINT1 (11716480_a_at) / Fold change /veh SPINT1 (11716480_a_at) / RFU GAP43 (11754022_s_at) / Fold change /veh GAP43 (11754022_s_at) / RFU A4GNT (11735810_at) / Fold change /veh A4GNT (11735810_at) / RFU PRB3 (11715151_x_at) / Fold change /veh PRB3 (11715151_x_at) / RFU TUBB4B (11761932_at) / Fold change /veh TUBB4B (11761932_at) / RFU CAPN14 (11732068_a_at) / Fold change /veh CAPN14 (11732068_a_at) / RFU TMCC2 (11721928_a_at) / Fold change /veh TMCC2 (11721928_a_at) / RFU IRGQ (11745062_a_at) / Fold change /veh IRGQ (11745062_a_at) / RFU FAM174B (11720279_a_at) / Fold change /veh FAM174B (11720279_a_at) / RFU TMPRSS4 (11748680_a_at) / Fold change /veh TMPRSS4 (11748680_a_at) / RFU FAM212B (11763350_a_at) / Fold change /veh FAM212B (11763350_a_at) / RFU PLEKHG5 (11743358_a_at) / Fold change /veh PLEKHG5 (11743358_a_at) / RFU ZSCAN30 (11745921_a_at) / Fold change /veh ZSCAN30 (11745921_a_at) / RFU CMKLR1 (11741424_a_at) / Fold change /veh CMKLR1 (11741424_a_at) / RFU LOC101060620 /// MAPK8IP1 (11723275_at) / Fold change /veh LOC101060620 /// MAPK8IP1 (11723275_at) / RFU SPTSSB (11747773_x_at) / Fold change /veh SPTSSB (11747773_x_at) / RFU PRSS12 (11739890_at) / Fold change /veh PRSS12 (11739890_at) / RFU BIN1 (11741810_x_at) / Fold change /veh BIN1 (11741810_x_at) / RFU WNT11 (11732464_a_at) / Fold change /veh WNT11 (11732464_a_at) / RFU C10orf10 (11716521_a_at) / Fold change /veh C10orf10 (11716521_a_at) / RFU C5orf56 (11738089_at) / Fold change /veh C5orf56 (11738089_at) / RFU CYB561 (11721691_x_at) / Fold change /veh CYB561 (11721691_x_at) / RFU ANKRD19P (11752326_a_at) / Fold change /veh ANKRD19P (11752326_a_at) / RFU OR2T12 /// OR2T33 /// OR2T8 (11738714_s_at) / Fold change /veh OR2T12 /// OR2T33 /// OR2T8 (11738714_s_at) / RFU VCAN (11748164_a_at) / Fold change /veh VCAN (11748164_a_at) / RFU JSRP1 (11732532_at) / Fold change /veh JSRP1 (11732532_at) / RFU KRTAP10-11 (11738290_x_at) / Fold change /veh KRTAP10-11 (11738290_x_at) / RFU MYO3A (11730013_a_at) / Fold change /veh MYO3A (11730013_a_at) / RFU EBF3 (11725865_a_at) / Fold change /veh EBF3 (11725865_a_at) / RFU CAMK2N1 (11719241_x_at) / Fold change /veh CAMK2N1 (11719241_x_at) / RFU C5orf56 (11738088_a_at) / Fold change /veh C5orf56 (11738088_a_at) / RFU OLFML3 (11715873_a_at) / Fold change /veh OLFML3 (11715873_a_at) / RFU LOC100653217 /// NTM (11731650_a_at) / Fold change /veh LOC100653217 /// NTM (11731650_a_at) / RFU MAPK11 (11762145_a_at) / Fold change /veh MAPK11 (11762145_a_at) / RFU FIZ1 (11724087_x_at) / Fold change /veh FIZ1 (11724087_x_at) / RFU OASL (11726364_x_at) / Fold change /veh OASL (11726364_x_at) / RFU SOX15 (11748057_x_at) / Fold change /veh SOX15 (11748057_x_at) / RFU CD79A (11719716_a_at) / Fold change /veh CD79A (11719716_a_at) / RFU HIST1H1D (11736915_at) / Fold change /veh HIST1H1D (11736915_at) / RFU CASKIN2 (11723855_a_at) / Fold change /veh CASKIN2 (11723855_a_at) / RFU LOC730098 (11760151_x_at) / Fold change /veh LOC730098 (11760151_x_at) / RFU OR4N2 (11742367_at) / Fold change /veh OR4N2 (11742367_at) / RFU PRRT2 (11749266_a_at) / Fold change /veh PRRT2 (11749266_a_at) / RFU SNX32 (11753110_a_at) / Fold change /veh SNX32 (11753110_a_at) / RFU CDHR5 (11726645_a_at) / Fold change /veh CDHR5 (11726645_a_at) / RFU RCAN1 (11760418_a_at) / Fold change /veh RCAN1 (11760418_a_at) / RFU FAM167A (11723789_a_at) / Fold change /veh FAM167A (11723789_a_at) / RFU FAM26E (11764081_at) / Fold change /veh FAM26E (11764081_at) / RFU ISYNA1 (11749810_s_at) / Fold change /veh ISYNA1 (11749810_s_at) / RFU ACY1 (11761880_at) / Fold change /veh ACY1 (11761880_at) / RFU 11764098_at / Fold change /veh 11764098_at / RFU SAMD14 (11745864_x_at) / Fold change /veh SAMD14 (11745864_x_at) / RFU NPB (11741838_a_at) / Fold change /veh NPB (11741838_a_at) / RFU TMPRSS6 (11731388_a_at) / Fold change /veh TMPRSS6 (11731388_a_at) / RFU KRTAP10-2 (11738614_at) / Fold change /veh KRTAP10-2 (11738614_at) / RFU ARHGAP8 /// PRR5-ARHGAP8 (11727945_x_at) / Fold change /veh ARHGAP8 /// PRR5-ARHGAP8 (11727945_x_at) / RFU KRTAP5-7 /// NADSYN1 (11734609_at) / Fold change /veh KRTAP5-7 /// NADSYN1 (11734609_at) / RFU RASL12 (11751679_a_at) / Fold change /veh RASL12 (11751679_a_at) / RFU CDKN2B (11736163_a_at) / Fold change /veh CDKN2B (11736163_a_at) / RFU PRF1 (11729649_at) / Fold change /veh PRF1 (11729649_at) / RFU, ZNF638 /// ZNF638-IT1 / Fold change vs veh, ZNF638 /// ZNF638-IT1 / RFU, PANK3 / Fold change vs veh, PANK3 / RFU, SH3YL1 / Fold change vs veh, SH3YL1 / RFU, ZEB2 / Fold change vs veh, ZEB2 / RFU, NRIP1 / Fold change vs veh, NRIP1 / RFU, PTTG1IP / Fold change vs veh, PTTG1IP / RFU, CAPN2 / Fold change vs veh, CAPN2 / RFU, MED14 / Fold change vs veh, MED14 / RFU, SNORA58 / Fold change vs veh, SNORA58 / RFU, C1orf63 / Fold change vs veh, C1orf63 / RFU, LRRFIP1 / Fold change vs veh, LRRFIP1 / RFU, NDUFAF7 / Fold change vs veh, NDUFAF7 / RFU, SLC12A2 / Fold change vs veh, SLC12A2 / RFU, IBTK / Fold change vs veh, IBTK / RFU, ESF1 / Fold change vs veh, ESF1 / Fold change vs veh, TMEM50B / RFU, TAOK1 / Fold change vs veh, TAOK1 / RFU, ACBD3 / Fold change vs veh, ACBD3 / RFU, TMA16 / Fold change vs veh, TMA16 / RFU, RWDD3 / Fold change vs veh, RWDD3 / RFU, BCAT1 / Fold change vs veh, BCAT1 / RFU, EDEM3 / Fold change vs veh, EDEM3 / RFU, TMEM33 / Fold change vs veh, TMEM33 / RFU, WDR75 / Fold change vs veh, WDR75 / RFU, AHCTF1 / Fold change vs veh, AHCTF1 / RFU, TFRC / Fold change vs veh, TFRC / RFU, ZDHHC17 / Fold change vs veh, ZDHHC17 / RFU, NOM1 / Fold change vs veh, NOM1 / RFU, ARL8B / Fold change vs veh, ARL8B / RFU, ZBTB11 / Fold change vs veh, ZBTB11 / RFU, TAMM41 / Fold change vs veh, TAMM41 / RFU, KIAA1704 /// LOC100996395 / Fold change vs veh, KIAA1704 /// LOC100996395 / RFU, ING1 / Fold change vs veh, ING1 / RFU, TRMT61B / Fold change vs veh, TRMT61B / RFU, FUBP3 / Fold change vs veh, FUBP3 / RFU, TP53 / Fold change vs veh, TP53 / RFU, TNKS2 / Fold change vs veh, TNKS2 / RFU, ZFP14 / Fold change vs veh, ZFP14 / RFU, ACTR2 / Fold change vs veh, ACTR2 / RFU, PPP3R1 / Fold change vs veh, PPP3R1 / RFU, PIK3R1 / Fold change vs veh, PIK3R1 / RFU, HNRNPA1 / Fold change vs veh, HNRNPA1 / RFU, RNF170 / Fold change vs veh, RNF170 / RFU, ZNF28 / Fold change vs veh, ZNF28 / RFU, RNGTT / Fold change vs veh, RNGTT / RFU, OGT / Fold change vs veh, OGT / RFU, BRD1 / Fold change vs veh, BRD1 / RFU, MARS / Fold change vs veh, MARS / RFU, ZNF655 / Fold change vs veh, ZNF655 / RFU, FAHD1 / Fold change vs veh, FAHD1 / RFU, BDP1 / Fold change vs veh, BDP1 / RFU, LRRCC1 / Fold change vs veh, LRRCC1 / RFU, ARID1A / Fold change vs veh, ARID1A / RFU, ZNF146 / Fold change vs veh, ZNF146 / RFU, ZNF330 / Fold change vs veh, ZNF330 / RFU, GPN3 / Fold change vs veh, GPN3 / RFU, C9orf123 / Fold change vs veh, C9orf123 / RFU, N4BP2L2 / Fold change vs veh, N4BP2L2 / RFU, ARFIP1 / Fold change vs veh, ARFIP1 / RFU, FAM179B / Fold change vs veh, FAM179B / RFU, BCL10 / Fold change vs veh, BCL10 / RFU, UHRF1BP1L / Fold change vs veh, UHRF1BP1L / RFU, BET1 / Fold change vs veh, BET1 / RFU, CNOT2 / Fold change vs veh, CNOT2 / RFU, ZNF268 / Fold change vs veh, ZNF268 / Fold change vs veh, ZNF507 / RFU, DGCR2 / Fold change vs veh, DGCR2 / RFU, WDSUB1 / Fold change vs veh, WDSUB1 / Fold change vs veh, HSP90B1 /// MIR3652 / RFU, ADSS / Fold change vs veh, ADSS / RFU, GK / Fold change vs veh, GK / RFU, ZNF148 / Fold change vs veh, ZNF148 / RFU, TAF9 / Fold change vs veh, TAF9 / RFU, SLC1A5 / Fold change vs veh, SLC1A5 / RFU, SLMO2 / Fold change vs veh, SLMO2 / RFU, ABCC4 / Fold change vs veh, ABCC4 / RFU, LOC101060439 /// RAP1B / Fold change vs veh, LOC101060439 /// RAP1B / RFU, RFX7 / Fold change vs veh, RFX7 / RFU, GTPBP10 / Fold change vs veh, GTPBP10 / RFU, CNEP1R1 / Fold change vs veh, CNEP1R1 / RFU, BIVM-ERCC5 /// ERCC5 / Fold change vs veh, BIVM-ERCC5 /// ERCC5 / RFU, ILF3 / Fold change vs veh, ILF3 / RFU 11762660_at / Fold change /veh 11762660_at / RFU VCAN (11757783_s_at) / Fold change /veh VCAN (11757783_s_at) / RFU DDX43 (11728927_at) / Fold change /veh DDX43 (11728927_at) / RFU KRT8 (11758188_x_at) / Fold change /veh KRT8 (11758188_x_at) / RFU NKD1 (11759106_at) / Fold change /veh NKD1 (11759106_at) / RFU SRD5A1 (11742802_a_at) / Fold change /veh SRD5A1 (11742802_a_at) / RFU TPSAB1 /// TPSB2 (11721975_s_at) / Fold change /veh TPSAB1 /// TPSB2 (11721975_s_at) / RFU GSTM3 (11746129_a_at) / Fold change /veh GSTM3 (11746129_a_at) / RFU IL23R (11737362_x_at) / Fold change /veh IL23R (11737362_x_at) / RFU TMEM51 (11727254_a_at) / Fold change /veh TMEM51 (11727254_a_at) / RFU PIWIL2 (11732686_x_at) / Fold change /veh PIWIL2 (11732686_x_at) / RFU ORM1 (11744905_x_at) / Fold change /veh ORM1 (11744905_x_at) / RFU CCDC152 (11743942_at) / Fold change /veh CCDC152 (11743942_at) / RFU ECM1 (11717891_a_at) / Fold change /veh ECM1 (11717891_a_at) / RFU IL23R (11748794_a_at) / Fold change /veh IL23R (11748794_a_at) / RFU TNFAIP8L3 (11732012_x_at) / Fold change /veh TNFAIP8L3 (11732012_x_at) / RFU MBOAT4 (11741988_at) / Fold change /veh MBOAT4 (11741988_at) / RFU 11764193_at / Fold change /veh 11764193_at / RFU TMEM53 (11763286_at) / Fold change /veh TMEM53 (11763286_at) / RFU MAGEB2 (11727129_at) / Fold change /veh MAGEB2 (11727129_at) / RFU TMEM200A (11744735_a_at) / Fold change /veh TMEM200A (11744735_a_at) / RFU CCDC152 (11751479_a_at) / Fold change /veh CCDC152 (11751479_a_at) / RFU FAM211A (11726209_a_at) / Fold change /veh FAM211A (11726209_a_at) / RFU RGS16 (11746705_a_at) / Fold change /veh RGS16 (11746705_a_at) / RFU VCAN (11755009_s_at) / Fold change /veh VCAN (11755009_s_at) / RFU RHOB (11743442_s_at) / Fold change /veh RHOB (11743442_s_at) / RFU RGS16 (11720943_a_at) / Fold change /veh RGS16 (11720943_a_at) / RFU RGS16 (11720944_at) / Fold change /veh RGS16 (11720944_at) / RFU, VPS4B / Fold change vs veh, VPS4B / RFU, CREB1 / Fold change vs veh, CREB1 / RFU, DNAJC13 / Fold change vs veh, DNAJC13 / RFU, GNAQ / Fold change vs veh, GNAQ / RFU, CDK5R1 / Fold change vs veh, CDK5R1 / RFU, ZRANB3 / Fold change vs veh, ZRANB3 / RFU, CUL4A / Fold change vs veh, CUL4A / RFU, CCNY / Fold change vs veh, CCNY / RFU, UFL1 / Fold change vs veh, UFL1 / RFU, COG3 / Fold change vs veh, COG3 / RFU, DIAPH2 / Fold change vs veh, DIAPH2 / RFU, SKA2 / Fold change vs veh, SKA2 / RFU, AFF3 / Fold change vs veh, AFF3 / RFU, LMF1 / Fold change vs veh, LMF1 / RFU, IPO11 / Fold change vs veh, IPO11 / RFU, DFFB / Fold change vs veh, DFFB / RFU, FOXP1 / Fold change vs veh, FOXP1 / RFU, CARD8 / Fold change vs veh, CARD8 / RFU, STRN3 / Fold change vs veh, STRN3 / RFU, ADK / Fold change vs veh, ADK / RFU, RASSF2 / Fold change vs veh, RASSF2 / RFU, WIPF1 / Fold change vs veh, WIPF1 / RFU, LARP1B / Fold change vs veh, LARP1B / RFU, RASA1 / Fold change vs veh, RASA1 / RFU, RB1 / Fold change vs veh, RB1 / RFU, PPFIA1 / Fold change vs veh, PPFIA1 / RFU, MAT2A / Fold change vs veh, MAT2A / RFU, CCT5 / Fold change vs veh, CCT5 / RFU, WDR92 / Fold change vs veh, WDR92 / RFU, CUX1 / Fold change vs veh, CUX1 / RFU, TTC7A / Fold change vs veh, TTC7A / RFU, TMEM135 / Fold change vs veh, TMEM135 / RFU, DEPTOR / Fold change vs veh, DEPTOR / RFU, CPM / Fold change vs veh, CPM / RFU, DNAJB6 / Fold change vs veh, DNAJB6 / RFU, CACNA2D3 / Fold change vs veh, CACNA2D3 / RFU, DTX4 / Fold change vs veh, DTX4 / RFU, TFCP2 / Fold change vs veh, TFCP2 / RFU, GMCL1 /// GMCL1P1 / Fold change vs veh, GMCL1 /// GMCL1P1 / RFU, AEBP2 / Fold change vs veh, AEBP2 / RFU, SNHG1 /// SNORD22 /// SNORD25 /// SNORD26 /// SNORD27 /// SNORD28 /// SNORD29 /// SNORD31 / Fold change vs veh, SNHG1 /// SNORD22 /// SNORD25 /// SNORD26 /// SNORD27 /// SNORD28 /// SNORD29 /// SNORD31 / Fold change (Aza/veh), C12orf56 (ProbeSet 11735607_a_at) / Fold change (ACY-1035/veh), C12orf56 (ProbeSet 11735607_a_at) / Fold change (Aza/veh), FGFR1OP (ProbeSet 11751329_s_at) / Fold change (ACY-1035/veh), FGFR1OP (ProbeSet 11751329_s_at) / Fold change (Aza/veh), VPS36 (ProbeSet 11739960_a_at) / Fold change (ACY-1035/veh), VPS36 (ProbeSet 11739960_a_at) / RFU SYPL1 (11715823_x_at) / Fold change /veh SYPL1 (11715823_x_at) / RFU IGFBP7 (11715501_s_at) / Fold change /veh IGFBP7 (11715501_s_at) / RFU REEP3 (11722064_at) / Fold change /veh REEP3 (11722064_at) / RFU IGLL1 (11728026_x_at) / Fold change /veh IGLL1 (11728026_x_at): dose or concentration left out as unconfirmed", "conditions": "MV-4-11 cells, 48 hours"}
{"compound": "Nc1ncn([C@@H]2O[C@H](CO)[C@@H](O)[C@H]2O)c(=O)n1", "note": "[azacitidine]", "values": [{"measurement": "Fold change /veh TUBB4B (11761932_at)", "value": 1.00}]}
